#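 Values below derive from 48-hour exposures of cells grown in 96-well plates, with endpoints linearly interpolated between the two concentrations bracketing the appropriate inhibition level. GI50: concentration for 50% inhibition of growth. Definition used: TGI = concentration required for complete inhibition of growth.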 Where a SMILES comes first, the peptide text is derived from it. [ ]: non-standard residue; d: D form. The star is where a group is joined. Ac5c = NC1(C(=O)O)CCCC1; Boc = CC(C)(C)OC(=O)*; tBu = CC(C)(C)*
# What was measured:
# Test in all cases: NCI-60 cell line screen, 48 h
# [1] = tested on: NCI-H23 lung
# [2] = tested on: UACC-257 melanoma
# [3] = tested on: HOP-92 NSCLC
# [4] = tested on: NCI-H226 lung
# [5] = tested on: COLO 205 colon
# [6] = tested on: HL-60(TB) leukemia
# [7] = tested on: NCI-H460 lung
# [8] = tested on: SF-268 CNS
# [9] = tested on: SNB-19 CNS
# [10] = tested on: KM12 colon
# [11] = tested on: A498 renal
# [12] = tested on: 786-0 renal
# [13] = tested on: M14 melanoma
# [14] = tested on: K-562 leukemia
# [15] = tested on: HOP-62 NSCLC
# [16] = tested on: CAKI-1 renal
# [17] = tested on: OVCAR-5 ovarian
# [18] = tested on: HCT-15 colon
# [19] = tested on: PC-3 prostate
# [20] = tested on: RPMI-8226 leukemia
# [21] = tested on: MOLT-4 leukemia
# [22] = tested on: SK-MEL-2 melanoma
# [23] = tested on: NCI/ADR-RES ovarian
# [24] = tested on: MCF7 breast
# [25] = tested on: SF-295 CNS
# [26] = tested on: MDA-MB-435
# [27] = tested on: SF-539 CNS
# [28] = tested on: MALME-3M melanoma
# [29] = tested on: CCRF-CEM leukemia
# [30] = tested on: DU-145 prostate
# [31] = tested on: SN12C renal
# [32] = tested on: OVCAR-8 ovarian
# [33] = tested on: BT-549 breast
# [34] = tested on: SK-MEL-5 melanoma
# [35] = tested on: SK-OV-3 ovarian
# [36] = tested on: UACC-62 melanoma
# [37] = tested on: NCI-H522 lung
# [38] = tested on: SR leukemia
# [39] = tested on: OVCAR-4 ovarian
# [40] = tested on: IGROV1 ovarian
# [41] = tested on: U251 CNS
# [42] = tested on: HCT-116 colon
# [43] = tested on: HT29 colon
# [44] = tested on: HCC-2998 colon
# [45] = tested on: TK-10 renal
# [46] = tested on: SW-620 colon
# [47] = tested on: HS 578T breast
# [48] = tested on: EKVX NSCLC
# [49] = tested on: ACHN renal
# [50] = tested on: OVCAR-3 ovarian
# [51] = tested on: UO-31 renal
# [52] = tested on: SK-MEL-28 melanoma
# [53] = tested on: RXF 393 renal
# [54] = tested on: SNB-75 CNS
# [55] = tested on: A549 NSCLC
# [56] = tested on: MDA-MB-231 breast
# [57] = tested on: LOX IMVI melanoma
# [58] = tested on: T-47D breast
compound,measurement,setting,value
CC(OC(C)(C)C)C(NC(=O)C(CCCCNC(=O)OC(C)(C)C)NC(=O)C(Cc1c[nH]c2ccccc12)NC(=O)C(N)Cc1ccccc1)C(=O)NC(Cc1ccccc1)C(=O)NC1(C(=O)O)CCCC1 (centres undefined) (H-FWK(Boc)T(tBu)F[Ac5c]-OH; configuration not given here),TGI,[1],> 100 µM
same,TGI,[2],> 100 µM
same,TGI,[3],> 100 µM
same,TGI,[4],> 100 µM
Cn1cc(-c2csc(-c3cn(C)c4ncccc34)n2)c2ccccc21,GI50,[5],0.229 µM
same,TGI,[5],1.05 µM
same,GI50,[6],0.283 µM
same,TGI,[6],18.8 µM
same,GI50,[1],0.752 µM
same,TGI,[1],20.6 µM
same,GI50,[7],0.336 µM
same,TGI,[7],13.5 µM
same,GI50,[8],1.12 µM
same,TGI,[8],37.4 µM
same,GI50,[9],0.574 µM
same,TGI,[9],27 µM
same,GI50,[10],0.242 µM
same,TGI,[10],> 76.7 µM
same,GI50,[11],0.496 µM
same,TGI,[11],8.65 µM
same,GI50,[12],0.588 µM
same,TGI,[12],18.1 µM
same,GI50,[13],0.256 µM
same,TGI,[13],> 41.4 µM
same,GI50,[14],0.103 µM
same,TGI,[14],16.6 µM
same,GI50,[15],0.622 µM
same,TGI,[15],19.3 µM
same,GI50,[16],0.373 µM
same,TGI,[16],32.5 µM
same,GI50,[17],0.876 µM
same,TGI,[17],23.8 µM
same,GI50,[18],0.23 µM
same,TGI,[18],> 100 µM
same,GI50,[19],0.397 µM
same,TGI,[19],> 100 µM
same,GI50,[20],0.396 µM
same,TGI,[20],25.3 µM
same,GI50,[21],0.613 µM
same,TGI,[21],> 52.2 µM
same,GI50,[22],0.405 µM
same,TGI,[22],16.8 µM
same,GI50,[23],0.135 µM
same,TGI,[23],3.47 µM
same,GI50,[24],0.322 µM
same,TGI,[24],> 100 µM
same,GI50,[25],0.274 µM
same,TGI,[25],12.6 µM
same,GI50,[26],0.0414 µM
same,TGI,[26],0.186 µM
same,GI50,[27],0.158 µM
same,TGI,[27],0.579 µM
same,GI50,[28],0.647 µM
same,TGI,[28],41 µM
same,GI50,[29],0.368 µM
same,TGI,[29],> 61.6 µM
same,GI50,[30],0.436 µM
same,TGI,[30],23.5 µM
same,GI50,[31],3.07 µM
same,TGI,[31],> 100 µM
same,GI50,[2],13 µM
same,TGI,[2],> 100 µM
same,GI50,[32],0.666 µM
same,TGI,[32],22.7 µM
same,GI50,[33],0.409 µM
same,TGI,[33],26.2 µM
same,GI50,[34],0.286 µM
same,TGI,[34],16.2 µM
same,GI50,[35],0.544 µM
same,TGI,[35],15.7 µM
same,GI50,[36],0.325 µM
same,TGI,[36],44.3 µM
same,GI50,[37],0.0889 µM
same,TGI,[37],1.16 µM
same,GI50,[38],0.0961 µM
same,TGI,[38],> 43.9 µM
same,GI50,[39],7.1 µM
same,TGI,[39],44 µM
same,GI50,[40],1.28 µM
same,TGI,[40],33.6 µM
same,GI50,[41],0.404 µM
same,TGI,[41],13.3 µM
same,GI50,[42],0.354 µM
same,TGI,[42],19 µM
same,GI50,[43],0.276 µM
same,TGI,[43],4.16 µM
same,GI50,[44],1.15 µM
same,TGI,[44],> 100 µM
same,GI50,[45],1 µM
same,TGI,[45],19.4 µM
same,GI50,[3],0.346 µM
same,TGI,[3],14.1 µM
same,GI50,[46],0.26 µM
same,TGI,[46],> 100 µM
same,GI50,[47],0.451 µM
same,TGI,[47],18.8 µM
same,GI50,[48],0.906 µM
same,TGI,[48],> 100 µM
same,GI50,[4],0.86 µM
same,TGI,[4],26.7 µM
same,GI50,[49],0.899 µM
same,TGI,[49],16.6 µM
same,GI50,[50],0.143 µM
same,TGI,[50],1.3 µM
same,GI50,[51],0.71 µM
same,TGI,[51],> 66.4 µM
same,GI50,[52],1.23 µM
same,TGI,[52],> 100 µM
same,GI50,[53],0.299 µM
same,TGI,[53],2.96 µM
same,GI50,[54],0.191 µM
same,TGI,[54],0.737 µM
same,GI50,[55],0.634 µM
same,TGI,[55],23.8 µM
same,GI50,[56],2.82 µM
same,TGI,[56],37.8 µM
same,GI50,[57],0.652 µM
same,TGI,[57],> 100 µM
CN(C)c1ccc(N=C(C#N)c2nc(N)nc(N3CCOCC3)n2)cc1,GI50,[5],> 100 µM
same,TGI,[5],> 100 µM
same,GI50,[6],70.4 µM
same,TGI,[6],> 100 µM
same,GI50,[1],> 100 µM
same,TGI,[1],> 100 µM
same,GI50,[7],48.1 µM
same,TGI,[7],> 100 µM
same,GI50,[9],> 100 µM
same,TGI,[9],> 100 µM
same,GI50,[10],53 µM
same,TGI,[10],> 100 µM
same,GI50,[12],35.6 µM
same,TGI,[12],> 100 µM
same,GI50,[13],> 100 µM
same,TGI,[13],> 100 µM
same,GI50,[14],62.1 µM
same,TGI,[14],> 100 µM
same,GI50,[15],55.2 µM
same,TGI,[15],> 100 µM
same,GI50,[16],39.9 µM
same,TGI,[16],> 100 µM
same,GI50,[17],> 100 µM
same,TGI,[17],> 100 µM
same,GI50,[18],52.9 µM
same,TGI,[18],> 100 µM
same,GI50,[19],44.1 µM
same,TGI,[19],> 100 µM
same,GI50,[20],74.3 µM
same,TGI,[20],> 100 µM
same,GI50,[21],60.8 µM
same,TGI,[21],> 100 µM
same,GI50,[22],> 100 µM
same,TGI,[22],> 100 µM
same,GI50,[23],27.1 µM
same,TGI,[23],62.8 µM
same,GI50,[25],15.9 µM
same,TGI,[25],31.3 µM
same,GI50,[26],53.2 µM
same,TGI,[26],> 100 µM
same,GI50,[27],21.4 µM
same,TGI,[27],46.1 µM
same,GI50,[28],16.4 µM
same,TGI,[28],49.4 µM
same,GI50,[29],97.2 µM
same,TGI,[29],> 100 µM
same,GI50,[30],49.8 µM
same,TGI,[30],> 100 µM
same,GI50,[31],28.8 µM
same,TGI,[31],98.5 µM
same,GI50,[2],> 100 µM
same,TGI,[2],> 100 µM
same,GI50,[32],38.1 µM
same,TGI,[32],> 100 µM
same,GI50,[33],35 µM
same,TGI,[33],> 100 µM
same,GI50,[34],40.4 µM
same,TGI,[34],> 100 µM
same,GI50,[58],> 100 µM
same,TGI,[58],> 100 µM
same,GI50,[35],66.2 µM
same,TGI,[35],> 100 µM
same,GI50,[36],46.3 µM
same,TGI,[36],> 100 µM
same,GI50,[37],26.5 µM
same,TGI,[37],> 100 µM
same,GI50,[38],34.9 µM
same,TGI,[38],> 100 µM
same,GI50,[39],46.6 µM
same,TGI,[39],> 100 µM
same,GI50,[40],34 µM
same,TGI,[40],> 100 µM
same,GI50,[41],32.9 µM
same,TGI,[41],> 100 µM
same,GI50,[43],67.5 µM
same,TGI,[43],> 100 µM
same,GI50,[44],> 100 µM
same,TGI,[44],> 100 µM
same,GI50,[45],23 µM
same,TGI,[45],63.6 µM
same,GI50,[3],28.3 µM
same,TGI,[3],> 100 µM
same,GI50,[46],> 100 µM
same,TGI,[46],> 100 µM
same,GI50,[48],> 100 µM
same,TGI,[48],> 100 µM
same,GI50,[4],> 100 µM
same,TGI,[4],> 100 µM
same,GI50,[49],23.3 µM
same,TGI,[49],68.4 µM
same,GI50,[50],34.6 µM
same,TGI,[50],> 100 µM
same,GI50,[51],71.7 µM
same,TGI,[51],> 100 µM
same,GI50,[52],19.5 µM
same,TGI,[52],48.4 µM
same,GI50,[53],27.5 µM
same,TGI,[53],70.1 µM
same,GI50,[54],18.7 µM
same,TGI,[54],49.4 µM
same,GI50,[55],38.8 µM
same,TGI,[55],> 100 µM
same,GI50,[56],20.7 µM
same,TGI,[56],50.5 µM
same,GI50,[57],22.1 µM
same,TGI,[57],53.5 µM

# — PubChem BioAssay (NCI)
